Read-outs that look alike come from different tables or passages of the source.
Molecular target: human α7 nAChR (Homo sapiens, UniProt P36544)
Test: Automated patch-clamp electrophysiology functional assay (Assay A)
Assay type: cell-based
Conditions: IonFlux HT whole-cell population patch, HEK cell line stably expressing human RIC-3 and human α7, 40 μM acetylcholine
Protocol: The α7 nAChR positive allosteric modulator (PAM) activity of the present compounds may be tested using assays known in the art. […] The assay was performed using the IonFlux HT in a whole-cell, population patch configuration. See Golden et al. Assay Drug Dev. Technol. (2011) 9:608-619. The compounds were assessed for their ability to modulate the function of the human α7 nAChR stably expressed in a HEK cell line both in the presence, and in the absence of the natural α7 agonist acetylcholine. By performing a series of such measurements at different concentrations, the effective concentration of the α7 nAChR PAMs (EC50) was determined. See Spencer et al. Assay Drug Dev. Technol. (2012) 10:313-324.
Direct activation of α7 (agonism), and potentiation of acetylcholine-evoked α7 currents was determined as follows:
Automated Patch-Clamp Electrophysiology Functional Assay (Assay A)
Automated patch-clamp electrophysiology was performed using the IonFlux HT (Fluxion Biosciences Inc., San Francisco, Calif.) in the whole-cell, population patch configuration. Test compounds were assessed for their ability to modulate the function of the α7 nicotinic acetylcholine receptor both in the presence, and in the absence of the natural α7 agonist acetylcholine. A HEK cell line stably expressing both human RIC-3 and human α7 (PrecisION hnAChR α7/RIC-3, Eurofins Pharma, St. Charles, Mo.) was cultured in 175 cm^2 triple-layer tissue culture flasks to no more than 90% confluency in DMEM/F-12 growth media supplemented with 10% heat-inactivated fetal bovine serum, 1% non-essential amino acids, 0.625 μg/mL Puromycin, and 400 μg/mL Geneticin. Immediately prior to assay, cells were detached by first aspirating growth media, rinsing with Dulbecco's phosphate buffered saline, and then adding 10 mL of Accutase (Innovative Cell Technologies, San Diego, Calif.) to the flask and then incubating at 37° C. for 5 minutes. Detached cells were then recovered by the addition of 40 mL of CHO-serum-free media supplemented with 25 mM HEPES, and rocked gently in a 50 mL conical tube for 20 minutes prior to patch-clamp assay. […] The cell suspension was added to the cell inlet wells on an IonFlux HT population patch plate which had previously been rinsed and primed with deionized H2O. Test compounds were serially diluted in DMSO and then resuspended to the final test concentration in external recording solution, with, or without 40 μM acetylcholine added to the external recording solution; test compounds were then transferred to the lonFlux HT population patch plate. Internal recording solution (110 mM TrisPO4, 28 mM TrisBase, 0.1 mM CaCl2, 2 mM MgCl2, 11 mM EGTA, 4 mM MgATP) was added to the internal recording solution inlet wells on the IonFlux HT patch plate previously loaded with cells and test compounds, and the plate loaded into the IonFlux HT instrument. A protocol was executed on the IonFlux HT to trap the cells, break into the cells, and establish the whole-cell recording configuration; cells were voltage-clamped at a holding potential of −60 mV for the duration of the experiment, all experiments were conducted at room temperature, and the IonFlux HT injection pressure was 8 psi for solution applications. Upon establishing the whole-cell configuration, external recording solution was perfused into the recording chambers for 120 seconds and then 40 μM acetylcholine was applied for 1 second and immediately washed off with external recording solution for 60 seconds. The 40 μM acetylcholine-evoked α7 current served as the current response to which subsequent test compound effects, in the presence, or in the absence of 40 μM acetylcholine would be quantified relative to. Next, test compounds were evaluated at multiple concentrations for their ability to induce, or modulate α7 current responses; three concentrations of test compound were evaluated in ascending dose fashion per recording.

Chain of human α7 nAChR (P36544 23-502): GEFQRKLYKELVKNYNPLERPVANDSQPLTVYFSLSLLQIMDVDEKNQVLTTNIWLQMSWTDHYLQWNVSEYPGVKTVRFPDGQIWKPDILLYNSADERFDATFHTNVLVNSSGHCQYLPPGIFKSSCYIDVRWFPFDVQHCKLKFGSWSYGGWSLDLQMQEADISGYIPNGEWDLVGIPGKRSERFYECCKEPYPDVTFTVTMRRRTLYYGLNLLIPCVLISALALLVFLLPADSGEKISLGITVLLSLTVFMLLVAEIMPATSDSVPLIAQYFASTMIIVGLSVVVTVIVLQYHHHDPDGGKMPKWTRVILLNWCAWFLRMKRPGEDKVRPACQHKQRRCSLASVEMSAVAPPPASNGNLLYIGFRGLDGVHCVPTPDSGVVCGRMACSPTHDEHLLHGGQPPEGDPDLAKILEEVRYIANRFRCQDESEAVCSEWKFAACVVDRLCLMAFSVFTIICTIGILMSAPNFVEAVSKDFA

| Compound | EC50 (read-out: α7 nAChR EC50) | EC50 (read-out: α7 nAChR Potency) |
| --- | --- | --- |
| CC1(C)[C@@H](c2ccc(S(N)(=O)=O)nc2)[C@@H]1c1noc(-c2ccccc2)n1 (relative stereo) [Example 11, 5-[trans-2,2-Dimethyl-3-(5-phenyl-1,2,4-oxadiazol-3-yl)cyclopropyl]pyridine-2-sulfonamide] | 0.99 µM | 0.5 to 5 µM |
| CC1(C)C(c2ccc(S(N)(=O)=O)nc2)C1c1nc2ccccc2o1 (single isomer, unassigned) [Example 1, 5-[trans-3-(1,3-Benzoxazol-2-yl)-2,2-dimethylcyclopropyl]pyridine-2-sulfonamide] | 0.45 µM | 0.1 to 0.5 µM |
| CC(C)c1noc([C@@H]2[C@@H](c3ccc(S(N)(=O)=O)nc3)C2(C)C)n1 [Example A14, 5-{(1R,3R)-2,2-Dimethyl-3-[3-(propan-2-yl)-1,2,4-oxadiazol-5-yl]cyclopropyl}pyridine-2-sulfonamide] | 0.57 µM | 0.5 to 5 µM |
| CC1(C)[C@@H](c2ccc(S(N)(=O)=O)cn2)[C@@H]1c1nc(-c2ccc(F)cc2F)no1 [Example F5, 6-{(1S,3S)-3-[3-(2,4-Difluorophenyl)-1,2,4-oxadiazol-5-yl]-2,2-dimethylcyclopropyl}pyridine-3-sulfonamide] | 1.7 µM | 0.5 to 5 µM |
| CC1(C)[C@H](c2ccc(S(N)(=O)=O)nc2)[C@H]1c1nc(-c2cncc(C(F)(F)F)c2)no1 [Example A2, 5-[(1R,3R)-2,2-Dimethyl-3-{3-[5-(trifluoromethyl)pyridin-3-yl]-1,2,4-oxadiazol-5-yl}cyclopropyl]pyridine-2-sulfonamide] | 1.4 µM | 0.5 to 5 µM |
| COc1ccc(Cl)cc1-c1noc([C@@H]2[C@@H](c3ccc(S(N)(=O)=O)nc3)C2(C)C)n1 [Example A6, 5-{(1R,3R)-3-[3-(5-Chloro-2-methoxyphenyl)-1,2,4-oxadiazol-5-yl]-2,2-dimethylcyclopropyl}pyridine-2-sulfonamide] | 1.5 µM | 0.5 to 5 µM |
| NS(=O)(=O)c1ccc([C@@H]2C[C@H]2c2nc(C3CCCC3)no2)nc1 (racemic) [Example G7, 6-[trans-2-(3-Cyclopentyl-1,2,4-oxadiazol-5-yl)cyclopropyl]pyridine-3-sulfonamide] | 3 µM | 0.5 to 5 µM |
| CC1(C)[C@H](c2ccc(S(N)(=O)=O)nc2)[C@H]1c1nc(C2CC(F)(F)C2)no1 [Example A11, 5-{(1R,3R)-3-[3-(3,3-Difluorocyclobutyl)-1,2,4-oxadiazol-5-yl]-2,2-dimethylcyclopropyl}pyridine-2-sulfonamide] | 3 µM | 0.5 to 5 µM |
| CC(C)(C)c1noc([C@H]2[C@H](c3ccc(S(N)(=O)=O)nc3)C2(C)C)n1 [Example B12, 5-[(1S,3S)-3-(3-tert-Butyl-1,2,4-oxadiazol-5-yl)-2,2-dimethylcyclopropyl]pyridine-2-sulfonamide] | 1.6 µM | 0.5 to 5 µM |
| CC1(C)[C@H](c2ccc(S(N)(=O)=O)nc2)[C@H]1c1nc(-c2ccccc2)no1 [Example A1, 5-[(1R,3R)-2,2-Dimethyl-3-(3-phenyl-1,2,4-oxadiazol-5-yl)cyclopropyl]pyridine-2-sulfonamide] | 1.5 µM | 0.5 to 5 µM |
| CC1(C)[C@@H](c2nc(C3CCC3)no2)[C@@H]1c1ncc(S(N)(=O)=O)s1 (racemic) [Example D2, 2-[trans-3-(3-Cyclobutyl-1,2,4-oxadiazol-5-yl)-2,2-dimethylcyclopropyl]-1,3-thiazole-5-sulfonamide] | 1.2 µM | 0.5 to 5 µM |
| CC1(C)[C@@H](c2ccc(S(N)(=O)=O)cn2)[C@@H]1c1nc(C2CC2)no1 [Example F8, 6-[(1S,3S)-3-(3-Cyclopropyl-1,2,4-oxadiazol-5-yl)-2,2-dimethylcyclopropyl]pyridine-3-sulfonamide] | 1.4 µM | 0.5 to 5 µM |
| CC1(C)[C@H](c2ccc(S(N)(=O)=O)nc2)[C@H]1c1nc(-c2cncc(F)c2)no1 [Example A9, 5-{(1R,3R)-3-[3-(5-Fluoropyridin-3-yl)-1,2,4-oxadiazol-5-yl]-2,2-dimethylcyclopropyl}pyridine-2-sulfonamide] | 5 µM | 0.5 to 5 µM |
| NS(=O)(=O)c1cnc([C@@H]2C[C@H]2c2nc(-c3ccccc3)no2)s1 (racemic) [Example D8, 2-[trans-2-(3-Phenyl-1,2,4-oxadiazol-5-yl)cyclopropyl]-1,3-thiazole-5-sulfonamide] | 1 µM | 0.5 to 5 µM |
| CC1(C)C(c2ccc(S(N)(=O)=O)nc2)C1c1cc(-c2cccc(F)c2)on1 (single isomer, unassigned) [Example C13, 5-{trans-3-[5-(3-Fluorophenyl)isoxazol-3-yl]-2,2-dimethylcyclopropyl}pyridine-2-sulfonamide] | 1.1 µM | 0.5 to 5 µM |
| CC1(C)[C@@H](c2ccc(S(N)(=O)=O)cn2)[C@@H]1c1nc(CC2CC2)no1 [Example F7, 6-{(1S,3S)-3-[3-(Cyclopropylmethyl)-1,2,4-oxadiazol-5-yl]-2,2-dimethylcyclopropyl}pyridine-3-sulfonamide] | 1.5 µM | 0.5 to 5 µM |
| CC1(C)[C@@H](c2nc(-c3cncc(F)c3)no2)[C@@H]1c1ncc(S(N)(=O)=O)s1 (racemic) [Example D3, 2-{trans-3-[3-(5-Fluoropyridin-3-yl)-1,2,4-oxadiazol-5-yl]-2,2-dimethylcyclopropyl}-1,3-thiazole-5-sulfonamide] | 1.6 µM | 0.5 to 5 µM |
| COc1ccc(Cl)cc1-c1noc([C@H]2[C@H](c3ccc(S(N)(=O)=O)nc3)C2(C)C)n1 [Example B2, 5-{(1S,3S)-3-[3-(5-Chloro-2-methoxyphenyl)-1,2,4-oxadiazol-5-yl]-2,2-dimethylcyclopropyl}pyridine-2-sulfonamide] | 1.7 µM | 0.5 to 5 µM |
| CC1(C)[C@H](c2ccc(S(N)(=O)=O)cn2)[C@H]1c1nc(-c2ccccc2)no1 [Example E3, 6-[(1R,3R)-2,2-Dimethyl-3-(3-phenyl-1,2,4-oxadiazol-5-yl)cyclopropyl]pyridine-3-sulfonamide] |  | 0.5 to 5 µM |
| CC1(C)[C@@H](c2ccc(S(N)(=O)=O)nc2)[C@@H]1c1nc(C2CCC2)no1 [Example B9, 5-[(1S,3S)-3-(3-Cyclobutyl-1,2,4-oxadiazol-5-yl)-2,2-dimethylcyclopropyl]pyridine-2-sulfonamide] | 0.62 µM | 0.5 to 5 µM |
| CC1(C)[C@H](c2ccc(S(N)(=O)=O)cn2)[C@H]1c1nc(C2CCCCC2)no1 [Example E7, 6-[(1R,3R)-3-(3-Cyclohexyl-1,2,4-oxadiazol-5-yl)-2,2-dimethylcyclopropyl]pyridine-3-sulfonamide] |  | 0.5 to 5 µM |
| CC1(C)[C@@H](c2ccc(S(N)(=O)=O)cn2)[C@@H]1c1nc(-c2cccc(F)c2)no1 [Example F1, 6-{(1S,3S)-3-[3-(3-Fluorophenyl)-1,2,4-oxadiazol-5-yl]-2,2-dimethylcyclopropyl}pyridine-3-sulfonamide] | 1.1 µM | 0.5 to 5 µM |
| CC1(C)[C@@H](c2ccc(S(N)(=O)=O)nc2)[C@@H]1c1ncc(C2CCCC2)s1 [Example B16, 5-[(1S,3S)-3-(5-Cyclopentyl-1,3-thiazol-2-yl)-2,2-dimethylcyclopropyl]pyridine-2-sulfonamide] | 1.5 µM | 0.5 to 5 µM |
| COc1ccc(Cl)cc1-c1noc([C@@H]2[C@@H](c3ccc(S(N)(=O)=O)cn3)C2(C)C)n1 [Example E4, 6-{(1R,3R)-3-[3-(5-Chloro-2-methoxyphenyl)-1,2,4-oxadiazol-5-yl]-2,2-dimethylcyclopropyl}pyridine-3-sulfonamide] | 5.4 µM | 5 to 50 µM |
